We go through four compounds from US11691981B2, “Heterocyclic compounds, preparation methods therefor, and methods of uses thereof” (INVENTISBIO CO., LTD., priority 2019, dated 2023).

One data set has as its target TGFβR1 (Homo sapiens (Human), UniProt P36897). Description: TGFβR1 kinase inhibition assay (ADP-Glo Kinase Assay). The format is biochemical. The conditions noted are these: 40 nM TGFβR1 in 2x enzyme mix, 5.4 μM ATP in 2x substrate mix, 120 min RT. The procedure: TGFβR1 kinase assay was performed according to the instruction manual of the ADP-Glo™ Kinase Assay kit provided by Promega. Prepare 1× Kinase buffer (50 mM Tris pH7.5, 0.1% BSA, 10 mM MgCl2, 1 mM DTT). Before activation reaction was started, Compounds were dissolved in DMSO and make 100× solution with 3-fold serial dilution for a total of 10 concentrations. Transfer 50 nL compounds to 384-well plate according to plate map using the automated liquid handler. […] Add 5 μL ADP-Glo Reagent to terminate the kinase reaction and deplete the remaining ATP, incubate at RT for 60 minutes. Add 10 μL Kinase Detection Reagent to convert ADP to ATP and allow the newly synthesized ATP to be measured using a luciferin reaction, incubate at RT for 30 minutes. Collect luminescence data with Envision.
In general terms: ADP-Glo first removes unused ATP, then detects ADP through luciferase.

The next data set concerns pooled human hepatocytes. In words: Human hepatocyte clearance study. The conditions noted are these: human hepatocytes; for Human Hepatocyte Remaining Percentage @ 120 min: 0.5×10^6 viable cells/mL. The format is in vitro ADME. The procedure: (§1) The in vitro human hepatocyte clearance of compounds described here was studied using pooled human hepatocytes purchased from BioreclamationIVT (Westbury, N.Y., Cat #X008001, Lot #TQJ). The assay was conducted according to manufacturer's instruction. Briefly, 10 mM stock solutions of test compounds and positive control (Verapamil) were prepared in 100% DMSO. Thawing media (50 mL) used in the study consists of: 31 mL Williams E medium (GIBCO Cat #12551-032); 15 mL isotonic percoll (GE Healthcare Cat #17-0891-09); 500 uL 100× GlutaMax (GIBCO Cat #35050); 750 uL HEPES (GIBCO Cat #15630-080); 2.5 mL FBS (Corning Cat #35-076-CVR); 50 uL human insulin (GIBCO Cat #12585-014) and 5 uL dexamethasone (NICPBP). Incubation media is made of Williams E medium supplemented with 1× GlutaMax. Both thawing medium and incubation medium (serum-free) were placed in a 37° C. water bath for at least 15 minutes prior to use. Compound stock solutions were diluted to 100 μM by combining 198 μL of 50% acetonitrle/50% water and 2 μL of 10 mM stock solution. Verapamil was use as positive control in the assay. Vials of cryopreserved hepatocytes were removed from storage and thawed in a 37° C. water bath with gentle shaking. Contents of the vial were poured into the 50 mL thawing medium conical tube. Vials were centrifuged at 100 g for 10 minutes at room temperature. Thawing medium was aspirated and hepatocytes were re-suspended with serum-free incubation medium to yield ˜1.5×10^6 cells/mL. Hepatocyte viability and density were counted using a Trypan Blue exclusion, and then cells were diluted with serum-free incubation medium to a working cell density of 0.5×10^6 viable cells/mL. Then, a portion of the hepatocytes at 0.5×10^6 viable cells/mL was boiled for 5 minutes prior to adding to the plate as negative control to eliminate the enzymatic activity so that little or no substrate turnover should be observed. The boiled hepatocytes were used to prepare negative samples. Aliquots of 198 μL hepatocytes were dispensed into each well of a 96-well non-coated plate. The plate was placed in the incubator on an orbital shaker at 500 rpm for approximately 10 minutes. Aliquots of 2 μL of the 100 μM test compound or positive control were added into respective wells of the non-coated 96-well plate to start the reaction. This assay was performed in duplicate. The plate was incubated in the incubator on an orbital shaker at 500 rpm for the designated time points. Twenty-five microliter of contents were transferred and mixed with 6 volumes (150 μL) of cold acetonitrile with IS (200 nM imipramine, 200 nM labetalol and 200 nM diclofenac) to terminate the reaction at time points of 0, 15, 30, 60, 90 and 120 minutes. Samples were centrifuged at 3,220 g for 25 minutes and aliquots of 150 μL of the supernatants were used for LC-MS/MS analysis. For data analysis, all calculations were carried out using Microsoft Excel. Peak areas were determined from extracted ion chromatograms. The in vitro half-life (t1/2) of parent compound was determined by regression analysis of the percent parent disappearance vs. time curve. The in vitro half-life (in vitro ti) was determined from the slope value: in vitro t1/2=0.693/k. […] Scaling factors for in vivo intrinsic clearance prediction using human hepatocytes are listed as: liver weight (g liver/kg body weight): 25.7; hepatocyte concentration (10^6 cells/g liver): 99; scaling factor: 2544.3.

A further data set concerns MDCK-MDR1 cells. In words: P-glycoprotein substrate potential / permeability in MDR1-transfected MDCK cells. In kind it is in vitro ADME. The procedure: (§2) MDCK-MDR1 cells were seeded into 96-well HTS Transwell plate at the density of 5.45×10^5/cm^2. Cells were cultivated for 4-7 days before the transport assay. Transepithelial electrical resistance (TEER) of MDCK-MDR1 monolayer was measured before the experiment with the Millicell Epithelial Volt-Ohm measuring system.
(§3) Transport assay: Cell monolayers were pre-incubated in transport medium (TM, HBSS with 25 mM HEPES, pH 7.4) for 30 min at 37° C. After preincubation, the study was initiated by adding the test compound to the donor side and TM to the receiver side. Compound transport was assessed at 1 μM in two directions (apical, AP to basolateral, BL and BL to AP) and the study was carried out in the presence and absence of P-gp inhibitor verapamil in both AP and BL compartments. After two hours incubation, aliquots of 50 μL from donor or receiver side were removed and mixed with 4 volumes of acetonitrile containing internal standards (200 nM alprazolam, 200 nM labetalol, 2 μM ketoprofen). Samples were analyzed by UPLC-MS/MS. All incubations were performed in duplicate. After the transport experiment, Lucifer Yellow leakage was measured in a fluorescence plate reader at 485 nm excitation and 530 nm emission.
(§4) Data Analysis: All calculations were carried out using Microsoft Excel. Peak areas are determined from extracted ion chromatograms.
(§5) The apparent permeability coefficient (Papp), in units of centimeter per second, was calculated for MDCK-MDR1 drug transport assays using the following equation: […]
(§6) Where VA is the volume (in mL) in the acceptor well, Area is the surface area of the membrane (0.143 cm2 for Transwell-96 Well Permeable Supports), and time is the total transport time in seconds.
(§7) The efflux ratio was determined using the following equation: […]
(§8) Where Papp (B-A) indicates the apparent permeability coefficient in basolateral to apical direction, and Papp (A-B) indicates the apparent permeability coefficient in apical to basolateral direction.

For the next data set, the target named is TGFβR2 (Homo sapiens (Human), UniProt P37173). Description: TGFβR2 kinase inhibition assay (ADP-Glo). The format is biochemical. The conditions noted are these: 10 uM ATP, 120 min room temperature. As to the method: The TGFβR2 enzyme reaction was carried out as follows: 50 nL of compound in DMSO (or DMSO controls) were stamped into 384 white, low-volume plates. 2.5 μL of 2× enzyme solution (final enzyme concentration was 3 ng/uL in 40 mMTris, 7.5; 20 mM MgCl2; 0.1 mg/mL BSA; 1 mM DTT) was dispensed into assay plate. The plate was then sealed and spun at 1000 rpm for 30 s and incubated at room temperature for 10 min. Followed by addition of 2.5 μL of 2× substrate solution that contains both ATP (to make a final concentration of 10 uM) and TGFβR2 substrate (final concentration of 0.2 ug/uL). The plate was then sealed and spun at 1000 rpm for 30 s and the reaction was then incubated at room temperature for 120 min. After that 5 μL ADP-Glo™ Reagent was added into the assay wells to stop the reaction and deplete unconsumed ATP for 40 min at room temperature; then, 10 μL of Detection Reagent was added into the assay wells, followed by 40 min incubation to develop luminescence. The luminescence signal was then collected on Envision 2104 plate reader.
Chain of TGFβR2 (P37173 23-567): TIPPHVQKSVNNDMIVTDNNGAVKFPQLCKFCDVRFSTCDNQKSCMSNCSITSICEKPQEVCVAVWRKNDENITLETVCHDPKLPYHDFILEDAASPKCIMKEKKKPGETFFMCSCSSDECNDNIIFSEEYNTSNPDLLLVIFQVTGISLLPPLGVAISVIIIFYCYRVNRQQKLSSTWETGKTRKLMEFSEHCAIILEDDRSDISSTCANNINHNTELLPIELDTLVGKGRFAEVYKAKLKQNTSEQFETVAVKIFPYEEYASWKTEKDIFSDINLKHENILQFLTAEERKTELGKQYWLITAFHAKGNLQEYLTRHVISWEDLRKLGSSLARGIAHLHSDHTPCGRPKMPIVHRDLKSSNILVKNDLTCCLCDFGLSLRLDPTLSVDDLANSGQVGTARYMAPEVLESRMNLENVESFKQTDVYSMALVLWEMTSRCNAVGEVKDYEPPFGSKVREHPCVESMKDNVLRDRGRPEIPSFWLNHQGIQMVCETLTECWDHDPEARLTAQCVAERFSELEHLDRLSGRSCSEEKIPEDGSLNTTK

Data set [1] is described as follows: Human hepatocyte clearance study. In kind it is in vitro ADME. The conditions noted are these: pooled cryopreserved human hepatocytes (suspension); for hepatocyte CLint at 1 µM / half-life at 1 µM: human; for hepatocyte CLint at 1 µM: read-out: Human In vitro Clint; for half-life at 1 µM: read-out: Human In vitro T1/2; for CLint scaled at 1 µM: human hepatocytes, scaling factor 2544.3, read-out: Human Scale-up Clint. As to the method: as §1

The test system of another data set is P-glycoprotein (MDR1). In words: P-glycoprotein substrate potential / permeability in MDR1-transfected MDCK cells. In kind it is in vitro ADME. The conditions noted are these: dog, pH 7.4; for Papp A→B at 2 h, 1 µM / Papp B→A at 2 h, 1 µM: MDCK-MDR1, 1 μM, two hours; for Papp A→B at 2 h, 1 µM: apical to basolateral; for Papp B→A at 2 h, 1 µM: basolateral to apical; for efflux ratio at 2 h, 1 µM: MDCK-MDR1, Papp (B-A)/Papp (A-B). The procedure:
as §2, §3, §4, §5, §6, §7, §8

As usually defined, the IC50 is the point on the concentration scale where inhibition reaches its midpoint. What is called Papp A→B is how fast a substance crosses the layer from the apical side. As usually defined, the Papp B→A is how fast a substance crosses the layer from the basolateral side. By efflux ratio is commonly meant a quotient of directional permeabilities that is used to spot active efflux.

Chain of TGFβR1 (P36897 34-503): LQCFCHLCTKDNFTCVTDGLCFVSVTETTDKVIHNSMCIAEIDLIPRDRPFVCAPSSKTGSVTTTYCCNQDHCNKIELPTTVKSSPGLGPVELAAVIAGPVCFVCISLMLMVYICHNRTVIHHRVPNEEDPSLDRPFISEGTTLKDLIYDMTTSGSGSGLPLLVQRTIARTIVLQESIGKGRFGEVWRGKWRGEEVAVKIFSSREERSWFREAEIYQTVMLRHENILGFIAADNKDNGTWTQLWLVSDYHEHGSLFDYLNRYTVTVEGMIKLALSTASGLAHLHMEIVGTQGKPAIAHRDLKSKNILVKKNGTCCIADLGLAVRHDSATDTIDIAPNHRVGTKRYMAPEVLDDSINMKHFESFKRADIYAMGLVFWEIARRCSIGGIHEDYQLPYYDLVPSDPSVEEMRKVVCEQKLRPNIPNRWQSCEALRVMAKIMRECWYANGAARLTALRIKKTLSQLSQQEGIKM

Take `CC(C)(O)c1cc(Nc2cc(Oc3cc(C(F)(F)F)nn3C3CCOCC3)ccn2)ccn1` [Compound 2]: at TGFβR1, 53 nM corresponded to half-maximal inhibition (IC50). In the data set on pooled human hepatocytes, the “Human In vitro Clint” value came to 5.6 μL/min/10^6 cells, the “Human In vitro T1/2” value stood at 4.1 h and the “Human Hepatocyte Remaining Percentage @ 120 min” value is listed as 72%. Further, in the data set with pooled human hepatocytes (scaling factor 2544.3), the “Human Scale-up Clint” value is reported as 14.3 mL/min/kg. For the same compound, the “Papp (A-B)” value with MDCK-MDR1 cells (MDCK-MDR1, 1 μM, apical to basolateral, two hours) is 4.95 10^−6, cm/s. The “Papp (B-A)” value in the data set with MDCK-MDR1 cells (MDCK-MDR1, 1 μM, basolateral to apical, two hours) is recorded as 14.87 10^−6, cm/s. The “Efflux Ratio” value in the data set on MDCK-MDR1 cells (MDCK-MDR1, Papp (B-A)/Papp (A-B)) was 3.00.

As for `CC(C)(O)c1ccc(Nc2cc(Oc3cc(C(F)(F)F)nn3C3CCOCC3)ccn2)cn1` [Compound 11], the IC50 on TGFβR1 worked out at 24 nM. Further, the IC50 against TGFβR2 is > 100000 nM. Further, in data set [1], the hepatocyte CLint at 1 µM turned out to be 5.7 µL/min/1e6 cells, the half-life at 1 µM was found to be 4.03 h and the CLint scaled at 1 µM worked out at 14.6 mL/min/kg. In addition, the “Human Hepatocyte Remaining Percentage @ 120 min” value in the data set on pooled human hepatocytes is listed as 71%. Further, in the data set with P-glycoprotein (MDR1), the Papp A→B at 2 h, 1 µM was 7.38 ×10⁻⁶ cm/s; the Papp B→A at 2 h, 1 µM came out at 6.24 ×10⁻⁶ cm/s; the efflux ratio at 2 h, 1 µM is 0.85.

`Cc1ccc(Oc2ccnc(Nc3ccnc(C(C)(C)O)c3)c2)c(C)n1` [Compound 57] returned an IC50 against TGFβR1 of 21 nM. On TGFβR2, the IC50 was > 100000 nM. Also, in data set [1], the hepatocyte CLint at 1 µM is 2.4 µL/min/1e6 cells, the half-life at 1 µM is 9.73 h and the CLint scaled at 1 µM turned out to be 6 mL/min/kg. The “Human Hepatocyte Remaining Percentage @ 120 min” value in the data set with pooled human hepatocytes is recorded as 89%. In the data set on P-glycoprotein (MDR1), the Papp A→B at 2 h, 1 µM came to 12.4 ×10⁻⁶ cm/s; the Papp B→A at 2 h, 1 µM was 18 ×10⁻⁶ cm/s; the efflux ratio at 2 h, 1 µM was 1.46.

Regarding `CC(C)(O)c1cc(Nc2cc(Oc3cn(C4CC4)nc3C3CCOCC3)ccn2)ccn1` [Compound A, 2-(4-((4-((1-cyclopropyl-3-(tetrahydro-2H-pyran-4-yl)-1H-pyrazol-4-yl)oxy)pyridin-2-yl)amino)pyridin-2-yl)propan-2-ol, reference compound], in data set [1], the hepatocyte CLint at 1 µM amounted to 12.5 µL/min/1e6 cells, the half-life at 1 µM stood at 1.85 h and the CLint scaled at 1 µM worked out at 31.7 mL/min/kg. The “Human Hepatocyte Remaining Percentage @ 120 min” value in the data set with pooled human hepatocytes stood at 48%. Besides, in the data set on P-glycoprotein (MDR1), the Papp A→B at 2 h, 1 µM is 2.75 ×10⁻⁶ cm/s; the Papp B→A at 2 h, 1 µM is 37.8 ×10⁻⁶ cm/s; the efflux ratio at 2 h, 1 µM is 13.7.
